Results from the Deep4Chem optical property database.
Blank lines part the entries; values can stand above or below the compound they belong to.

Experiment: solvent given as SMILES
[1] = in c1ccc2c(c1)c1ccccc1n2-c1ccc(-c2ccc(-n3c4ccccc4c4ccccc43)cc2)cc1

fluorescence lifetime (in ClCCl): 6.45 ns
SMILES: CCCCCCCCCCCCN1C(=O)c2c(c3ccc4cc(-c5ccc(C=O)cc5)c(OC)cc4c3c3c2ccc2cc(-c4ccc(C=O)cc4)c(OC)cc23)C1=O

SMILES: c1ccc(-c2cc(-c3ccc4ccc5c(-c6ccnc(-c7ccccn7)c6)ccc6ccc3c4c65)ccn2)nc1
fluorescence lifetime (in C1CCOC1): 2 ns
fluorescence lifetime (in CC#N): 2.2 ns
fluorescence lifetime (in CCC#N): 2.2 ns
fluorescence lifetime (in CCCC#N): 2.1 ns
fluorescence lifetime (in CCCCCC): 2.6 ns
fluorescence lifetime (in CCCO): 2.1 ns
fluorescence lifetime (in CCO): 2.1 ns
fluorescence lifetime (in CO): 1.7 ns
fluorescence lifetime (in Cc1ccccc1): 1.8 ns

fluorescence lifetime (in C1CCOC1): 15.2 ns
fluorescence lifetime (in CCO): 16.3 ns
fluorescence lifetime (in CN(C)C=O): 15.8 ns
SMILES: Nc1cccc2c1C(=O)NC2=O

fluorescence lifetime (in ClC(Cl)Cl): 0.0093 ns
SMILES: CCCCCCN1C(=O)c2cccc3c(-c4ccc(Cl)s4)ccc(c23)C1=O

fluorescence lifetime (in C1CCCCC1): 3.8 ns
SMILES: COc1ccc(OC)cc1

fluorescence lifetime (in C1CCCCC1): 11.1 ns
SMILES: COc1ccccc1

SMILES: CN1CCCc2cc3c(C(F)(F)F)cc(=O)oc3cc21
fluorescence lifetime (in C1CCCCC1): 4.2 ns
fluorescence lifetime (in CC#N): 5.6 ns
fluorescence lifetime (in CCO): 5.1 ns

fluorescence lifetime (in CC#N): 0.64 ns
SMILES: Cc1cc2nc3c(=O)n(C)c(=O)n(C)c3nc2cc1C

fluorescence lifetime (in ClCCl): 1.09 ns
SMILES: CCCCCc1c(C(=O)c2ccc3c4c(cccc24)-c2cccc4c2C3CC=C4)c2ccc3cccc4c5cccc6ccc1c(c65)c2c34 (centres undefined)

fluorescence lifetime (in C1CCCCC1): 12 ns
SMILES: CC(C)(C)[Si](C)(C)c1ccc([Si](C)(C)C(C)(C)C)c2ccccc12

fluorescence lifetime (in ClCCl): 15.3 ns
SMILES: CCCCCCCCCCOc1ccc(C#Cc2cc3c(C#Cc4ccc(OCCCCCCCCCC)cc4)c(C#Cc4ccc(OCCCCCCCCCC)cc4)c4cc(C#Cc5ccc(OCCCCCCCCCC)cc5)cc5c(C#Cc6ccc(OCCCCCCCCCC)cc6)c(C#Cc6ccc(OCCCCCCCCCC)cc6)c(c2)c3c45)cc1

fluorescence lifetime (in O): 1.21 ns
SMILES: O=C([O-])COc1cc(NC(=O)c2ccc(-c3c4cc(Cl)c(=O)cc-4oc4cc(O)c(Cl)cc34)c(C(=O)[O-])c2)ccc1N(CC(=O)[O-])CC(=O)[O-]

fluorescence lifetime (in CC#N): 2.41 ns
SMILES: Cc1ccc2nc3[nH]c(=O)[nH]c(=O)c3nc2c1C

SMILES: O=C1c2ccc3c4ccc5c6c(ccc(c7ccc(c2c37)C(=O)N1c1ccncc1)c64)C(=O)N(c1ccncc1)C5=O
fluorescence lifetime (in C1CCOC1): 1.92 ns
fluorescence lifetime (in C1COCCO1): 3.27 ns
fluorescence lifetime (in CC(C)=O): 2.9 ns
fluorescence lifetime (in CC(C)O): 1.74 ns
fluorescence lifetime (in CCCCO): 1.85 ns
fluorescence lifetime (in CCO): 0.77 ns
fluorescence lifetime (in CCOC(C)=O): 1.34 ns
fluorescence lifetime (in CN(C)C=O): 1.69 ns
fluorescence lifetime (in CO): 0.79 ns
fluorescence lifetime (in CS(C)=O): 0.22 ns
fluorescence lifetime (in ClC(Cl)(Cl)Cl): 3.75 ns
fluorescence lifetime (in ClC(Cl)Cl): 3.74 ns

fluorescence lifetime (in C1CCOC1): 0.92 ns
SMILES: CCC1(CC)c2cc(Br)ccc2-c2c1c1c(c3c2C(CC)(CC)c2cc(-c4cccs4)ccc2-3)C(CC)(CC)c2cc(Br)ccc2-1

fluorescence lifetime (in CC#N): 4.4 ns
fluorescence lifetime (in ClCCl): 3.86 ns
SMILES: COc1ccc2nc(N)sc2c1

fluorescence lifetime (in ClC(Cl)Cl): 2.64 ns
SMILES: N#Cc1ccc(C#Cc2ccccc2C#N)cc1

SMILES: N#Cc1cc(C#N)c(-n2c3ccccc3c3ccccc32)cc1-n1c2ccccc2c2ccccc21
fluorescence lifetime (in Cc1ccccc1): 9 ns

fluorescence lifetime (in O): 2.27 ns
SMILES: Nc1ccc2ccc([O-])cc2c1

SMILES: CC(C)(C)c1ccc2c(c1)c1cc(C(C)(C)C)ccc1n2-c1cccc2c1Oc1c(-c3nc(-c4ccccc4)nc(-c4ccccc4)n3)cccc1C2(C)C
fluorescence lifetime (in Cc1ccccc1): 4 ns

SMILES: Cc1cc(C)c(B(c2c(C)cc(C)cc2C)c2ccc3ccc4cccc5ccc2c3c45)c(C)c1
fluorescence lifetime (in Cc1ccccc1): 3 ns

fluorescence lifetime (in ClC(Cl)Cl): 5 ns
SMILES: CCCCCCCCCCCCOc1cc2c3c(ccc4c5c(OC6CCC(C(C)(C)C)CC6)cc6c7c(ccc(c1c34)c75)C(=O)N(C1CCCCC1)C6=O)C(=O)N(C1CCCCC1)C2=O (centres undefined)

fluorescence lifetime (in CC#N): 5.3 ns
SMILES: CC1=CC(/C=C/c2ccc([N+](C)(C)C)cc2)=[N+]2C1=C(c1ccc(C#CCO[C@@H]3O[C@H](CO)[C@@H](O)C(O)[C@H]3O)cc1)c1c(C)cc(/C=C/c3ccc([N+](C)(C)C)cc3)n1[B-]2(F)F (some centres undefined)

SMILES: CC1(C)c2ccccc2N(c2ccc(-c3ccc4c(c3)C(=O)c3ccc(-c5ccc(N6c7ccccc7C(C)(C)c7ccccc76)cc5)cc3C4=O)cc2)c2ccccc21
fluorescence lifetime (in Cc1ccccc1): 4.2 ns
fluorescence lifetime [1]: 41 ns

SMILES: CCN1/C(=C\c2c(-c3ccc(N(C)C)cc3)c(=O)c2=O)C=Cc2ccccc21
fluorescence lifetime (in C1CCCCC1): 1 ns
fluorescence lifetime (in Cc1ccccc1): 1.85 ns
fluorescence lifetime (in ClCCl): 0.1 ns

fluorescence lifetime (in ClCCl): 89.3 ns
SMILES: CC(C)(C)NC(=O)c1ccc(-c2ccc(N3c4ccccc4Oc4ccccc43)cc2)c2ccc3c4ccc(F)cc4c4cc(F)ccc4c3c12

fluorescence lifetime (in C1CCOC1): 6.5 ns
SMILES: c1ccc(/C(=C(\c2ccccc2)c2cc(-c3ccccc3)ccc2-c2ccccc2)c2cc(-c3ccccc3)ccc2-c2ccccc2)cc1

fluorescence lifetime (in C1CCCCC1): 140 ns
SMILES: Cc1cccc2ccccc12

SMILES: CCOC(=O)CN1C(=O)C2=C(c3ccc(C#N)cc3)N(CC(=O)OCC)C(=O)C2=C1c1ccccc1
fluorescence lifetime (in CC#N): 5.78 ns
fluorescence lifetime (in CS(C)=O): 7.07 ns
fluorescence lifetime (in Cc1ccccc1): 4.24 ns

fluorescence lifetime (in CC#N): 2.5 ns
SMILES: c1ccc([C@]23CC[C@H](CC2)N=N3)cc1

SMILES: CC(=O)[B-]1(C(C)=O)OC(c2ccccc2)=CC(c2ccccc2)=[O+]1
fluorescence lifetime (in CC#N): 1.5 ns
fluorescence lifetime (in ClC(Cl)(Cl)Cl): 2.1 ns

fluorescence lifetime (in C1CCCCC1): 56 ns
SMILES: CC(C)(C)[Si](C)(C)c1cccc2ccccc12

fluorescence lifetime (in ClCCl): 0.89 ns
SMILES: Brc1cc(/C=C/c2ccc(N(c3ccccc3)c3ccccc3)cc2)c(Br)cc1/C=C/c1ccc(N(c2ccccc2)c2ccccc2)cc1

fluorescence lifetime (in CO): 59 ns
SMILES: O=C(O)CCCOc1cc2ccc3cccc4ccc(c1)c2c34

SMILES: CCCCCCCC[n+]1ccc(-c2cc[n+](CCCCCCCC)cc2)cc1
fluorescence lifetime (in CC#N): 1 ns

fluorescence lifetime (in C1CCOC1): 0.48 ns
SMILES: Cc1sc(-c2ccc(-c3nc(-c4ccccc4)c(-c4ccccc4)[nH]3)cc2)c(C)c1C1=C(c2c(C)n(C)c3ccccc23)C(F)(F)C(F)(F)C1(F)F

fluorescence lifetime (in ClCCl): 1.4 ns
SMILES: F[B-]1(F)OC(c2ccccc2)=Cc2cc3[n+](c[n+]21)[B-](F)(F)OC(c1ccccc1)=C3

fluorescence lifetime (in ClC(Cl)Cl): 5.4 ns
SMILES: CCCCCCN1C(=O)C(c2ccc(-n3c4ccccc4c4ccccc43)cc2)=C(c2ccc(-n3c4ccccc4c4ccccc43)cc2)C1=O
fluorescence lifetime [1]: 4 ns
